We go through 13 compounds from patent US20250034116A1, “1,4-DIHETEROCYCLIC SUBSTITUTED AROMATIC RING OR AROMATIC HETEROCYCLIC COMPOUND AND USE THEREOF” (BeBetter Med Inc., priority 2022, published 2025).

The subject of data set [1] is CYP enzymes in human liver microsomes (HLM). As to the kind of experiment: Inhibition of 20-HETE production in human liver microsomes (HLM). It is filed as biochemical. How it is done:
(§1) Experimental principle: The inhibitory activity of 20-HETE production is evaluated by testing the inhibitory effects of the compound on human liver microsomes (HLM), rat liver microsomes (RLM), mouse liver microsomes (MLM), or […] CYP4 subtype enzymes (CYP4F2). This assay employs HLM, RLM, or MLM along with recombinant CYP4F2 (rCYP4F2) and recombinant CYP4A11 (rCYP4A11), which are […] CYP4 subtype enzymes, to detect the effects of the test compound at different concentrations on the metabolic rate of enzyme-specific substrates, to determine the inhibitory effects of the test compound on CYP enzymes in HLM, RLM, or MLM.
(§2) Experimental methods: Dissolve the test compound in DMSO, and subsequently dilute it with an acetonitrile and DMSO mixture (3:1). Add 2 μl of varying concentrations of the test compound and 100 μl of potassium phosphate buffer containing either liver microsomes or recombinant enzymes to a 96-well plate. After mixing well, transfer 30 μl to another well (in duplicate), add 15 μl of 400 μM substrate solution, and mix well again. Preheat at 37° C. for 10 minutes, and then add 15 μl of 6 mM NADPH and incubate at 37° C. for 25 minutes. After 25 minutes, add 160 μl of acetonitrile solution (containing 0.1 μg/ml internal standard) to stop the reaction. Mix well, centrifuge at 3500 g for 15 minutes, and then analyze the supernatant using LC-MS/MS.
(§3) Plot the compound concentration on the x-axis and the inhibition rate on the y-axis to draw the curve. Use GraphPad Prism 5 software to fit the curve and calculate the IC50. The formula is Y=Bottom+(Top−Bottom)/(1+10^((Log IC50−X)×HillSlope)). X represents the logarithmic concentration of the inhibitor, and Y represents the relative enzyme activity at a given inhibitor concentration (relative to the condition without the inhibitor).
(§4) Calculate the inhibition percentages at concentrations of 1000 nM, 500 nM, or 100 nM as well as the half-maximal inhibitory concentration (IC50) of the test compound from the above experiment.

For data set [2], the system named is CYP enzymes in rat liver microsomes (RLM). As to the kind of experiment: Inhibition of 20-HETE production in rat liver microsomes (RLM). The format is biochemical. How it is done:
as §1, §2, §3, §4

Turning to `Clc1ccc(CC2CCN(c3ccc(-c4cn[nH]c4)cc3)CC2)cc1` [Compound 41, 1-(4-(1H-pyrazol-4-yl)phenyl)-4-(4-chlorobenzyl)piperidine], the “HLM (% inh @ 500 nM)” value in data set [1] stood at 57.77%. Also, the “RLM (% inh @ 500 nM)” value in data set [2] came out at 15.76%.

For the compound `O=C1c2ccccc2CCN1CC1CCN(c2ccc(-c3cn[nH]c3)cc2)CC1` [Compound 42, 2-((1-(4-(1H-pyrazol-4-yl)phenyl)piperidin-4-yl)methyl)-3,4-dihydroisoquinolin-1(2H)-one], 32.8 nM corresponded to half-maximal inhibition in data set [1] (IC50). Also, in data set [2], inhibition was half-maximal at 605 nM (IC50) and the “RLM (% inh @ 500 nM)” value is reported as 25.96%.

Consider `CC(=O)NCC1CCN(c2ccc(-c3cn[nH]c3)cc2)CC1` [Compound 43, N-((1-(4-(1H-pyrazol-4-yl)phenyl)piperidin-4-yl)methyl) acetamide], for which, in data set [1], the “HLM (% inh @ 500 nM)” value turned out to be 61.30%. In addition, the “RLM (% inh @ 500 nM)” value in data set [2] amounted to 31.42%.

Take `CCCCCCC(=O)NCC1CCN(c2ccc(-c3cn[nH]c3)cc2)CC1` [Compound 44, N-((1-(4-(1H-pyrazol-4-yl)phenyl)piperidin-4-yl)methyl) heptylamide]: in data set [1], the IC50 (in general, the concentration needed to halve the response being measured) is 25.2 nM and the “HLM (% inh @ 500 nM)” value is 85.05%. In data set [2], this compound came in with an IC50 of 33.8 nM.

As to `O=C(CCCCCO)NCC1CCN(c2ccc(-c3cn[nH]c3)cc2)CC1` [Compound 45, N-((1-(4-(1H-pyrazol-4-yl)phenyl)piperidin-4-yl)methyl)-6-hydroxyhexanamide], in data set [1], the “HLM (% inh @ 500 nM)” value was found to be 57.83%. Besides, the “RLM (% inh @ 500 nM)” value in data set [2] is given as 26.43%.

As for `O=C(NCC1CCN(c2ccc(-c3cn[nH]c3)cc2)CC1)C1CCCC1` [Compound 46, N-((1-(4-(1H-pyrazol-4-yl)phenyl)piperidin-4-yl)methyl)cyclopentanecarboxamide], the IC50 in data set [1] is 43.2 nM; in data set [2] it was 942 nM. Besides, the “RLM (% inh @ 500 nM)” value in data set [2] was determined as 35.54%.

With `O=C1CCCN1CCC1CCN(c2ccc(-c3cn[nH]c3)cc2)CC1` [Compound 48, 1-(2-(1-(4-(1H-pyrazol-4-yl)phenyl)piperidin-4-yl)ethyl)pyrrolidin-2-one], the “HLM (% inh @ 500 nM)” value in data set [1] worked out at 73.42%. In addition, the “RLM (% inh @ 500 nM)” value in data set [2] worked out at 39.97%.

On to `O=C(C1CCN(c2ccc(-c3cn[nH]c3)cc2)CC1)N1CCOCC1` [Compound 50, (1-(4-(1H-pyrazol-4-yl)phenyl)piperidin-4-yl)(morpholinyl) methanone], for which the “HLM (% inh @ 500 nM)” value in data set [1] was found to be 57.59%. In data set [2], the “RLM (% inh @ 500 nM)” value is given as 14.48%.

As for `O=C(C1CCN(c2ccc(-c3cn[nH]c3)cc2)CC1)N1CCCCC1` [Compound 54, (1-(4-(1H-pyrazol-4-yl)phenyl)piperidin-4-yl)(piperidin-1-yl) methanone], the “HLM (% inh @ 500 nM)” value in data set [1] worked out at 81.26%. In data set [2], the IC50 was 995 nM and the “RLM (% inh @ 500 nM)” value is reported as 32.02%.

Regarding `O=C(NC1CCCC1)C1CCN(c2ccc(-c3cn[nH]c3)cc2)CC1` [Compound 55, 1-(4-(1H-pyrazol-4-yl)phenyl)-N-cyclopentylpiperidine-4-carboxamide], in data set [1], the “HLM (% inh @ 500 nM)” value was found to be 62.73%. Moreover, in data set [2], the “RLM (% inh @ 500 nM)” value is 21.92%.

As to `O=C(Nc1ccc(F)cc1)C1CCN(c2ccc(-c3cn[nH]c3)cc2)CC1` [Compound 61, 1-(4-(1H-pyrazol-4-yl)phenyl)-N-(4-fluorophenyl)piperidine-4-carboxamide], in data set [1], the half-inhibitory concentration (IC50) was determined as 17.6 nM and the “HLM (% inh @ 500 nM)” value worked out at 85.27%. In data set [2], this compound yielded an IC50 of 60.5 nM.

Consider `O=C(C1CCN(c2ccc(-c3cn[nH]c3)cc2)CC1)N1CC2CCC1C2` (stereo not shown) [Compound 65, (1-(4-(1H-pyrazol-4-yl)phenyl)piperidin-4-yl)(2-azabicyclo[2.2.1]heptane-2-yl) methanone], for which the “HLM (% inh @ 500 nM)” value in data set [1] is recorded as 52.63%. Further, the “RLM (% inh @ 500 nM)” value in data set [2] was 2.30%.

Take `O=C(C1CCN(c2ccc(-c3cn[nH]c3)cc2)CC1)N1CC2(CCC2)C1` [Compound 67, (1-(4-(1H-pyrazol-4-yl)phenyl)piperidin-4-yl)(2-azaspiro[3.3]heptane-2-yl) methanone]: in data set [1], the “HLM (% inh @ 500 nM)” value is reported as 55.57%. Also, in data set [2], the “RLM (% inh @ 500 nM)” value stood at 30.84%.
